From US10351546B2, “Pyridin-3-yl acetic acid derivatives as inhibitors of human immunodeficiency virus replication” (priority 2015, dated 2019)

tested on: NL-RLuc virus; assay: Inhibition of HIV replication (NL-RLuc luciferase reporter virus in MT-2 cells); assay type: cell-based; conditions: Human immunodeficiency virus 1, MT2, 120 h, read-out: Activity
Summary of the method: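 MT-2 cells were infected with NL4-3-derived virus carrying Renilla luciferase in place of part of nef, in RPMI/10% FBS, with serial compound dilutions. Luciferase read after 5 days of multicycle replication. EC50 from the median effect equation, at least 2 experiments.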

SMILES	EC50
Cc1nc(-c2ncc(Cc3ccc(F)cc3)o2)c(-c2ccc(OCCc3ccc(F)cc3)cc2)c(N2CCC(C)(C)CC2)c1[C@H](OC(C)(C)C)C(=O)O [Example 45, (S)-2-(tert-Butoxy)-2-(4-(4,4-dimethylpiperidin-1-yl)-6-(5-(4-fluorobenzyl)oxazol-2-yl)-5-(4-(4-fluorophenethoxy)phenyl)-2-methylpyridin-3-yl)acetic acid]	< 0.1 µM
Cc1nc(COCC2COC2)c(-c2ccc(OCCc3ccc(F)cc3)cc2)c(N2CCC(C)(C)CC2)c1[C@H](OC(C)(C)C)C(=O)O [Example 7, (S)-2-(tert-Butoxy)-2-(4-(4,4-dimethylpiperidin-1-yl)-5-(4-(4-fluorophenethoxy)phenyl)-2-methyl-6-((oxetan-3-ylmethoxy)methyl)pyridin-3-yl)acetic acid]	< 0.1 µM
CCOCCOCc1nc(C)c([C@H](OC(C)(C)C)C(=O)O)c(N2CCC(C)(C)CC2)c1Br [Example 37, (S)-2-(5-bromo-4-(4,4-dimethylpiperidin-1-yl)-6-((2-ethoxyethoxy)methyl)-2-methylpyridin-3-yl)-2-(tert-butoxy)acetic acid]	< 0.1 µM
COCc1nc(C)c([C@H](OC(C)(C)C)C(=O)O)c(N2CCC(C)(C)CC2)c1-c1ccc(OCCc2ccc(F)cc2)cc1 [Example 3, (S)-2-(tert-Butoxy)-2-(4-(4,4-dimethylpiperidin-1-yl)-5-(4-(4-fluorophenethoxy)phenyl)-6-(methoxymethyl)-2-methylpyridin-3-yl)acetic acid]	< 0.1 µM
CC(=O)NCc1nc(C)c([C@H](OC(C)(C)C)C(=O)O)c(N2CCC(C)(C)CC2)c1-c1ccc(OCCc2ccc(F)cc2)cc1 [Example 106, (S)-2-(6-(Acetamidomethyl)-4-(4,4-dimethylpiperidin-1-yl)-5-(4-(4-fluorophenethoxy)phenyl)-2-methylpyridin-3-yl)-2-(tert-butoxy)acetic acid]	< 0.1 µM
CNCc1nc(C)c([C@H](OC(C)(C)C)C(=O)O)c(N2CCC(C)(C)CC2)c1-c1ccc2c(c1)CCN(Cc1ccc(F)cc1C)C2 [Example 114, (S)-2-(tert-Butoxy)-2-(4-(4,4-dimethylpiperidin-1-yl)-5-(2-(4-fluoro-2-methylbenzyl)-1,2,3,4-tetrahydroisoquinolin-6-yl)-2-methyl-6-((methylamino)methyl)pyridin-3-yl)acetic acid]	< 0.1 µM
Cc1cc(F)ccc1CN1CCc2cc(-c3c(CNCc4ccncc4)nc(C)c([C@H](OC(C)(C)C)C(=O)O)c3N3CCC(C)(C)CC3)ccc2C1 [Example 124, (S)-2-(tert-Butoxy)-2-(4-(4,4-dimethylpiperidin-1-yl)-5-(2-(4-fluoro-2-methylbenzyl)-1,2,3,4-tetrahydroisoquinolin-6-yl)-2-methyl-6-(((pyridin-4-ylmethyl)amino)methyl)pyridin-3-yl)acetic acid]	< 0.1 µM
Cc1nc(COCC2COC2)c([C@H](OC(C)(C)C)C(=O)O)c(N2CCC(C)(C)CC2)c1-c1ccc(OCCc2ccc(F)cc2)cc1 [Example 109, (S)-2-(tert-Butoxy)-2-(4-(4,4-dimethylpiperidin-1-yl)-5-(4-(4-fluorophenethoxy)phenyl)-6-methyl-2-((oxetan-3-ylmethoxy)methyl)pyridin-3-yl)acetic acid]	< 0.1 µM
Cc1cc(F)ccc1CN1CCc2cc(-c3c(C(C)O)nc(C)c([C@H](OC(C)(C)C)C(=O)O)c3N3CCC(C)(C)CC3)ccc2C1 (single isomer, unassigned) [Example 152]	< 0.1 µM
Cc1nc(Cl)c(-c2ccc(OCCc3ccc(F)cc3)cc2)c(N2CCC(C)(C)CC2)c1[C@H](OC(C)(C)C)C(=O)O (single isomer, unassigned) [Example 52]	< 0.1 µM
Cc1cc(F)ccc1CN1CCc2cc(-c3c(CN4CCS(=O)(=O)CC4)nc(C)c([C@H](OC(C)(C)C)C(=O)O)c3N3CCC(C)(C)CC3)ccc2C1 [Example 123, (S)-2-(tert-Butoxy)-2-(4-(4,4-dimethylpiperidin-1-yl)-6-((1,1-dioxidothiomorpholino)methyl)-5-(2-(4-fluoro-2-methylbenzyl)-1,2,3,4-tetrahydroisoquinolin-6-yl)-2-methylpyridin-3-yl)acetic acid]	< 0.1 µM
Cc1nc(CF)c(-c2ccc(OCCc3ccc(F)cc3)cc2)c(N2CCC(C)(C)CC2)c1[C@H](OC(C)(C)C)C(=O)O [Example 5, (S)-2-(tert-Butoxy)-2-(4-(4,4-dimethylpiperidin-1-yl)-6-(fluoromethyl)-5-(4-(4-fluorophenethoxy)phenyl)-2-methylpyridin-3-yl)acetic acid]	< 0.1 µM
Cc1nc(N)c(-c2ccc3c(c2)CCN(c2ncnc4c2oc2ccccc24)C3)c(N2CCC(C)(C)CC2)c1[C@H](OC(C)(C)C)C(=O)O [Example 167, (S)-2-(6-amino-5-(2-(benzofuro[3,2-d]pyrimidin-4-yl)-1,2,3,4-tetrahydroisoquinolin-6-yl)-4-(4,4-dimethylpiperidin-1-yl)-2-methylpyridin-3-yl)-2-(tert-butoxy)acetic acid]	< 0.1 µM
C=Cc1nc(C)c([C@H](OC(C)(C)C)C(=O)O)c(N2CCC(C)(C)CC2)c1-c1ccc(OCCc2ccc(F)cc2)cc1 [Example 61, (S)-2-(tert-Butoxy)-2-(4-(4,4-dimethylpiperidin-1-yl)-5-(4-(4-fluorophenethoxy)phenyl)-2-methyl-6-vinylpyridin-3-yl)acetic acid]	< 0.1 µM
C#Cc1nc(C)c([C@H](OC(C)(C)C)C(=O)O)c(N2CCC(C)(C)CC2)c1-c1ccc(OCCc2ccc(F)cc2)cc1 [Example 161, (S)-2-(tert-Butoxy)-2-(4-(4,4-dimethylpiperidin-1-yl)-6-ethynyl-5-(4-(4-fluorophenethoxy)phenyl)-2-methylpyridin-3-yl)acetic acid]	< 0.1 µM
Cc1nc(CN2CCS(=O)(=O)CC2)c(-c2ccc(OCCc3ccc(F)cc3)cc2)c(N2CCC(C)(C)CC2)c1[C@H](OC(C)(C)C)C(=O)O [Example 83, (S)-2-(tert-Butoxy)-2-(4-(4,4-dimethylpiperidin-1-yl)-6-((1,1-dioxidothiomorpholino)methyl)-5-(4-(4-fluorophenethoxy)phenyl)-2-methylpyridin-3-yl)acetic acid]	< 0.1 µM
CNc1nc(C)c([C@H](OC(C)(C)C)C(=O)O)c(N2CCC(C)(C)CC2)c1-c1ccc(OCCc2ccc(F)cc2)cc1 [Example 49, (S)-2-(tert-Butoxy)-2-(4-(4,4-dimethylpiperidin-1-yl)-5-(4-(4-fluorophenethoxy)phenyl)-2-methyl-6-(methylamino)pyridin-3-yl)acetic acid]	< 0.1 µM
Cc1nc(CO)c(-c2ccc(OCCc3ccc(F)cc3)cc2)c(N2CCC(C)(C)CC2)c1[C@H](OC(C)(C)C)C(=O)O [Example 2, (S)-2-(tert-Butoxy)-2-(4-(4,4-dimethylpiperidin-1-yl)-5-(4-(4-fluorophenethoxy)phenyl)-6-(hydroxymethyl)-2-methylpyridin-3-yl)acetic acid]	< 0.1 µM
Cc1nc(CCCOC(C)C)c(-c2ccc(OCCc3ccc(F)cc3)cc2)c(N2CCC(C)(C)CC2)c1[C@H](OC(C)(C)C)C(=O)O [Example 56, (S)-2-(tert-Butoxy)-2-(4-(4,4-dimethylpiperidin-1-yl)-5-(4-(4-fluorophenethoxy)phenyl)-6-(3-isopropoxypropyl)-2-methylpyridin-3-yl)acetic acid]	< 0.1 µM
Cc1ncn(Cc2nc(C)c([C@H](OC(C)(C)C)C(=O)O)c(N3CCC(C)(C)CC3)c2-c2ccc3c(c2)CCN(Cc2ccc(F)cc2C)C3)n1 [Example 144, (S)-2-(tert-Butoxy)-2-(4-(4,4-dimethylpiperidin-1-yl)-5-(2-(4-fluoro-2-methylbenzyl)-1,2,3,4-tetrahydroisoquinolin-6-yl)-2-methyl-6-((3-methyl-1H-1,2,4-triazol-1-yl)methyl)pyridin-3-yl)acetic acid]	< 0.1 µM
Cc1nc(C#N)c(-c2ccc(OCCc3ccc(F)cc3)cc2)c(N2CCC(C)(C)CC2)c1[C@H](OC(C)(C)C)C(=O)O [Example 162, (S)-2-(tert-Butoxy)-2-(6-cyano-4-(4,4-dimethylpiperidin-1-yl)-5-(4-(4-fluorophenethoxy)phenyl)-2-methylpyridin-3-yl)acetic acid]	< 0.1 µM
Cc1nc(CN2CCN(C)CC2)c(-c2ccc(OCCc3ccc(F)cc3)cc2)c(N2CCC(C)(C)CC2)c1[C@H](OC(C)(C)C)C(=O)O [Example 94, (S)-2-(tert-Butoxy)-2-(4-(4,4-dimethylpiperidin-1-yl)-5-(4-(4-fluorophenethoxy)phenyl)-2-methyl-6-((4-methylpiperazin-1-yl)methyl)pyridin-3-yl)acetic acid]	< 0.1 µM
Cc1nc(COCC2CCOCC2)c(-c2ccc(OCCc3ccc(F)cc3)cc2)c(N2CCC(C)(C)CC2)c1[C@H](OC(C)(C)C)C(=O)O [Example 19, (S)-2-(tert-Butoxy)-2-(4-(4,4-dimethylpiperidin-1-yl)-5-(4-(4-fluorophenethoxy)phenyl)-2-methyl-6-(((tetrahydro-2H-pyran-4-yl)methoxy)methyl)pyridin-3-yl)acetic acid]	< 0.1 µM
Cc1nc(CNCCO)c(-c2ccc(OCCc3ccc(F)cc3)cc2)c(N2CCC(C)(C)CC2)c1[C@H](OC(C)(C)C)C(=O)O [Example 69, (S)-2-(tert-Butoxy)-2-(4-(4,4-dimethylpiperidin-1-yl)-5-(4-(4-fluorophenethoxy)phenyl)-6-(((2-hydroxyethyl)amino)methyl)-2-methylpyridin-3-yl)acetic acid]	< 0.1 µM
Cc1nc(O)c(-c2ccc(OCCc3ccc(F)cc3)cc2)c(N2CCC(C)(C)CC2)c1[C@H](OC(C)(C)C)C(=O)O (single isomer, unassigned) [Example 50]	< 0.1 µM
COCc1ncc([C@H](OC(C)(C)C)C(=O)O)c(N2CCC(C)(C)CC2)c1-c1ccc(OCCc2ccc(F)cc2)cc1 [Example 183, (S)-2-(tert-Butoxy)-2-(4-(4,4-dimethylpiperidin-1-yl)-5-(4-(4-fluorophenethoxy)phenyl)-6-(methoxymethyl)pyridin-3-yl)acetic acid]	< 0.1 µM

same assay, conditions: Human immunodeficiency virus 1, MT2, 120 h, read-out: EC50 μM

SMILES	EC50
Cc1nc(COCC2COC2)c([C@H](OC(C)(C)C)C(=O)O)c(N2CCC(C)(C)CC2)c1-c1ccc(OCCc2ccc(F)cc2)cc1 [Example 109, (S)-2-(tert-Butoxy)-2-(4-(4,4-dimethylpiperidin-1-yl)-5-(4-(4-fluorophenethoxy)phenyl)-6-methyl-2-((oxetan-3-ylmethoxy)methyl)pyridin-3-yl)acetic acid]	0.005 µM
CNc1nc(C)c([C@H](OC(C)(C)C)C(=O)O)c(N2CCC(C)(C)CC2)c1-c1ccc(OCCc2ccc(F)cc2)cc1 [Example 49, (S)-2-(tert-Butoxy)-2-(4-(4,4-dimethylpiperidin-1-yl)-5-(4-(4-fluorophenethoxy)phenyl)-2-methyl-6-(methylamino)pyridin-3-yl)acetic acid]	0.001 µM
Cc1ncn(Cc2nc(C)c([C@H](OC(C)(C)C)C(=O)O)c(N3CCC(C)(C)CC3)c2-c2ccc3c(c2)CCN(Cc2ccc(F)cc2C)C3)n1 [Example 144, (S)-2-(tert-Butoxy)-2-(4-(4,4-dimethylpiperidin-1-yl)-5-(2-(4-fluoro-2-methylbenzyl)-1,2,3,4-tetrahydroisoquinolin-6-yl)-2-methyl-6-((3-methyl-1H-1,2,4-triazol-1-yl)methyl)pyridin-3-yl)acetic acid]	0.025 µM
Cc1nc(C#N)c(-c2ccc(OCCc3ccc(F)cc3)cc2)c(N2CCC(C)(C)CC2)c1[C@H](OC(C)(C)C)C(=O)O [Example 162, (S)-2-(tert-Butoxy)-2-(6-cyano-4-(4,4-dimethylpiperidin-1-yl)-5-(4-(4-fluorophenethoxy)phenyl)-2-methylpyridin-3-yl)acetic acid]	0.008 µM
